The text below walks through data of US9845335B2, “Sofosbuvir in crystalline form and process for its preparation” (HC-PHARMA AG, priority 2014, dated 2017).

Format in all cases: physicochemical
Data set [1] in a line: Powder properties of the crystalline form (bulk and tapped density, compressibility, Hausner ratio).
The nature of data set [2]: Particle size distribution (PSD).
The nature of data set [3]: Stability and hygroscopicity of the crystalline form. The settings on record: statement in words, no data.
Where [4] appears, read: product of Example 1 (from isobutyl methyl ketone).

Regarding `CC(C)OC(=O)[C@H](C)N[P@](=O)(OC[C@H]1O[C@@H](n2ccc(=O)[nH]c2=O)[C@](C)(F)[C@@H]1O)Oc1ccccc1` [Sofosbuvir Form α], in data set [1], the “Bulk Density” value was 0.22 g/mL, the Compressibility index turned out to be 24.4, the Hausner ratio is recorded as 1.32 and the “Tapped Density” value stood at 0.29 g/mL. For the same compound, the “PSD: size of the 90% of the particles” value in data set [2] (general characterisation of the form) fell in the range of 10 to 50 μm. Further, in data set [2] (setting [4]), the “PSD d(0.1)” value was found to be 1.831 μm, the “PSD d(0.5)” value is recorded as 5.263 μm and the “PSD d(0.9)” value is 20.369 μm. Moreover, in data set [3], the Hygroscopicity result is reported as “not hygroscopic” and the “Stability of the crystalline form” value is “stable”.
